Data published in patent publication US12077503B2, “Substituted cyclic amides and their use as herbicides” (FMC CORPORATION, priority 2015, dated 2024).

Tests used:
Format in all cases: in vivo
[1] = test system: ragweed (common ragweed, Ambrosia elatior); assay: Test A preemergence; details: Ambrosia artemisiifolia, pre-emergence, 240 h, preemergence, read-out: Plant response rating, Ragweed; for pest or weed control at 125 g/ha: 125 g ai/ha, visual rating after approx. 10 d, 0 to 100 scale where 0 is no effect and 100 is complete control; for pest or weed control at 500 g/ha: 500 g ai/ha, 0 to 100 scale, 0 = no effect, 100 = complete control
Procedure, shortened: (§1)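 Preemergence directed soil spray on seeded pots, or postemergence application to plants 2–10 cm, one- to two-leaf. Solvent mixture non-phytotoxic, with surfactant. Scored ~10 d later, visually, 0–100 vs untreated.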

Kochia (Kochia scoparia) [2] = assay: Test A preemergence; details: Bassia scoparia, pre-emergence, 240 h, preemergence, read-out: Plant response rating, Kochia; for pest or weed control at 125 g/ha: 125 g ai/ha, visual rating after approx. 10 d, 0 to 100 scale where 0 is no effect and 100 is complete control; for pest or weed control at 500 g/ha: 500 g ai/ha, 0 to 100 scale, 0 = no effect, 100 = complete control
Procedure, shortened: as §1

[3] = test system: barnyardgrass (Echinochloa crus-galli); assay: Test A preemergence; details: Echinochloa crus-galli, pre-emergence, 240 h, preemergence, read-out: Plant response rating, Barnyardgrass; for pest or weed control at 125 g/ha: 125 g ai/ha, visual rating after approx. 10 d, 0 to 100 scale where 0 is no effect and 100 is complete control; for pest or weed control at 500 g/ha: 500 g ai/ha, 0 to 100 scale, 0 = no effect, 100 = complete control
Procedure, shortened: as §1

[4] = test system: ryegrass, Italian (Italian ryegrass, Lolium multiflorum); assay: Test A preemergence; details: Lolium multiflorum, pre-emergence, 240 h, preemergence, read-out: Plant response rating, Ryegrass, Italian; for pest or weed control at 125 g/ha: 125 g ai/ha, visual rating after approx. 10 d, 0 to 100 scale where 0 is no effect and 100 is complete control; for pest or weed control at 500 g/ha: 500 g ai/ha, 0 to 100 scale, 0 = no effect, 100 = complete control
Procedure, shortened: as §1

[5] = test system: giant foxtail (Setaria faberii); assay: Test A preemergence; details: Setaria faberi, pre-emergence, 240 h, preemergence, read-out: Plant response rating, Foxtail, Giant; for pest or weed control at 125 g/ha: 125 g ai/ha, visual rating after approx. 10 d, 0 to 100 scale where 0 is no effect and 100 is complete control; for pest or weed control at 500 g/ha: 500 g ai/ha, 0 to 100 scale, 0 = no effect, 100 = complete control
Procedure, shortened: as §1

[6] = test system: pigweed (Amaranthus retroflexus); assay: Test A preemergence; details: Amaranthus retroflexus, pre-emergence, 240 h, preemergence, read-out: Plant response rating, Pigweed; for pest or weed control at 125 g/ha: 125 g ai/ha, visual rating after approx. 10 d, 0 to 100 scale where 0 is no effect and 100 is complete control; for pest or weed control at 500 g/ha: 500 g ai/ha, 0 to 100 scale, 0 = no effect, 100 = complete control
[7] = test system: ducksalad (Heteranthera limosa); assay: Test B flooded paddy test; details: Heteranthera limosa, Flood, 250 g ai/ha; scale of 0 to 100 where 0 is no effect and 100 is complete control; read-out: Ducksalad plant response rating
Procedure, shortened: (§2)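 2-leaf plants; pots flooded 3 cm over soil; cpd added to paddy water; depth held; greenhouse 13–15 d; visual rating vs controls, 0 = no effect, 100 = complete control.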

[8] = test system: barnyardgrass (Echinochloa crus-galli); assay: Test B flooded paddy test; details: Echinochloa crus-galli, Flood, 250 g ai/ha; scale of 0 to 100 where 0 is no effect and 100 is complete control; read-out: Barnyardgrass plant response rating
Procedure, shortened: as §2

rice (Oryra sativa) = assay: Test B flooded paddy test; details: Oryza sativa, Flood, 250 g ai/ha; scale of 0 to 100 where 0 is no effect and 100 is complete control; read-out: Rice plant response rating
Procedure, shortened: as §2

[9] = test system: sedge, umbrella (small-flower umbrella sedge, Cyperus difformis); assay: Test B flooded paddy test; details: Cyperus difformis, Flood, 250 g ai/ha; scale of 0 to 100 where 0 is no effect and 100 is complete control; read-out: Sedge, Umbrella plant response rating
Procedure, shortened: as §2

[10] = test system: blackgrass (Alopecurus myosuroides); assay: Test A postemergence; details: Alopecurus myosuroides, post-emergence, 240 h, 125 g ai/ha, postemergence; visual injury after approximately 10 d; 0 to 100 scale (0 no effect, 100 complete control); read-out: Plant response rating, Blackgrass
Procedure, shortened: as §1

[11] = test system: ragweed (common ragweed, Ambrosia elatior); assay: Test A postemergence; details: Ambrosia artemisiifolia, post-emergence, 240 h, 125 g ai/ha, postemergence; visual injury after approximately 10 d; 0 to 100 scale (0 no effect, 100 complete control); read-out: Plant response rating, Ragweed
Procedure, shortened: as §1

Kochia (Kochia scoparia) [12] = assay: Test A postemergence; details: Bassia scoparia, post-emergence, 240 h, 125 g ai/ha, postemergence; visual injury after approximately 10 d; 0 to 100 scale (0 no effect, 100 complete control); read-out: Plant response rating, Kochia
Procedure, shortened: as §1

[13] = test system: barnyardgrass (Echinochloa crus-galli); assay: Test A postemergence; details: Echinochloa crus-galli, post-emergence, 240 h, 125 g ai/ha, postemergence; visual injury after approximately 10 d; 0 to 100 scale (0 no effect, 100 complete control); read-out: Plant response rating, Barnyardgrass
Procedure, shortened: as §1

[14] = test system: giant foxtail (Setaria faberii); assay: Test A postemergence; details: Setaria faberi, post-emergence, 240 h, 125 g ai/ha, postemergence; visual injury after approximately 10 d; 0 to 100 scale (0 no effect, 100 complete control); read-out: Plant response rating, Foxtail, Giant
Procedure, shortened: as §1

Structure (SMILES)	pest or weed control at 125 g/ha [1] [%]	pest or weed control at 500 g/ha [1] [%]	pest or weed control at 125 g/ha (Kochia (Kochia scoparia) [2]) [%]	pest or weed control at 500 g/ha (Kochia (Kochia scoparia) [2]) [%]	pest or weed control at 125 g/ha [3] [%]	pest or weed control at 500 g/ha [3] [%]	pest or weed control at 125 g/ha [4] [%]	pest or weed control at 125 g/ha [5] [%]	pest or weed control at 500 g/ha [5] [%]	pest or weed control at 125 g/ha [6] [%]	pest or weed control at 500 g/ha [6] [%]	pest or weed control at 250 g/ha [7] [%]	pest or weed control at 250 g/ha [8] [%]	pest or weed control at 250 g/ha (rice (Oryra sativa)) [%]	pest or weed control at 250 g/ha [9] [%]	pest or weed control at 125 g/ha [10] [%]	pest or weed control at 125 g/ha [11] [%]	pest or weed control at 125 g/ha (Kochia (Kochia scoparia) [12]) [%]	pest or weed control at 125 g/ha [13] [%]	pest or weed control at 125 g/ha [14] [%]	also measured
O=C1NC[C@H](c2cscn2)[C@H]1C(=O)Nc1ccccc1F [Compound 752]	40	60	60	70	30	90	20	90	90	20	40	0	0	0	0	0	20	40	60	50	pest or weed control at 500 g/ha [4]: 30%
O=C1NC[C@H](c2cccc3c2OC(F)(F)O3)[C@H]1C(=O)Nc1ccccc1F [Compound 754]	0	0	0	0	80	100	0	70	90	0	0	40	0	0	0	0	0	0	60	60	pest or weed control at 500 g/ha [4]: 0%
O=C1NC[C@H](c2cc(F)c(F)c(F)c2)[C@H]1C(=O)Nc1ccc(F)c(F)c1F [Compound 756]	0	30	70	70	100	100	30	100	100	40	70	100	50	0	0	0	20	20	90	80	pest or weed control at 500 g/ha [4]: 70%
CN1C[C@H](c2cc(F)c(F)c(F)c2)[C@@H](C(=O)Nc2ccc(F)c(F)c2F)C1=O [Compound 757]	20	90	70	70	90	90	30	90	90	30	70	100	75	80	0	60	0	20	90	90	pest or weed control at 500 g/ha [4]: 60%
CN1C[C@H](c2cc(F)cc(F)c2)[C@@H](C(=O)Nc2ccc(F)cc2C(F)(F)F)C1=O [Compound 758]	0	0	0	60	100	100	30	100	100	0	20	100	45	0	0	0	0	0	70	80	pest or weed control at 500 g/ha [4]: 70%
CN1C[C@H](c2cc(F)cc(F)c2)[C@@H](C(=O)Nc2c(F)cccc2F)C1=O [Compound 759]	0	0	0	20	90	100	0	70	100	0	0	0	0	0	0	0	0	0	70	20	–
CCc1ccc([C@H]2CNC(=S)[C@@H]2C(=O)Nc2cccc(F)c2C)cc1 [Compound 761]	0	0	30	80	90	100	0	60	90	0	0	95	0	0	0	0	0	0	70	60	–
